# Measurements taken from article PMC3779154, “Identification of Therapeutic Candidates for Chronic Lymphocytic Leukemia from a Library of Approved Drugs” (PLoS ONE, 2013).
# Like-named read-outs stand apart in the source and are kept apart here.
# Columns and labels:
# [1] = system: human thioredoxin reductase; set-up: method as in PMID 19665452; conditions: NADPH-reduced form; cited from earlier work
# [2] = system: lymphocytic leukemia P388; set-up: method as in PMID 6778607; conditions: cited from earlier work
# [3] = system: fresh CLL patient lymphocytes; conditions: for IC50: read-out: IC50 CLL, average of cells from 7 CLL patients, fresh, Figure 5
# Method: (§3) Cell viability was measured using a luciferase-based ATP quantitation assay (CellTiter-Glo^TM, Promega). The intracellular ATP content indicates the number of viable (i.e. metabolically competent) cells after compound treatment. […] After that, a total of 23 nL of compounds at 8 selected concentrations from the NPC library or positive control (10 mM stock of doxorubicin hydrochloride) in DMSO was transferred to each well of the assay plate using a pintool (Kalypsys, San Diego, CA), and the plates were further incubated at 37 °C with 5% CO2 for 24 hours to allow the reaction. Then 4µL of CellTilter-Glo luminescent substrate mix was added to each well. The plate was incubated at room temperature for 15 minutes. The plates were measured on a ViewLux plate reader (PerkinElmer) with clear filter. […] The test volume of 5,000 cells/4 μL/well was selected as the final assay condition in cell density tests based on the assay performance statistics: signal/background ratio, coefficient of variation and Z’-factor (data not shown).
# (§4) Fresh primary cells were also obtained from two unaffected normal donors and seven CLL patients whose blood samples were collected within hours of apheresis and which had not been included in our previous experiments.
# [4] = system: lymphocytes from normal donors; assay: qHTS luminescent ATP cell viability assay, primary screen, normal donor lymphocytes; conditions: differential efficacy or IC50 shift >5-fold
# From the text: (§1) Lymphocytes from 13 CLL treatment naïve patients (Table 1 ) and 5 normal donors were obtained by lymphapheresis with written informed consent and isolated by gradient centrifugation using Lymphocyte Separation Medium (MP Biomedicals, Solon, OH) and used fresh or cryopreserved in liquid nitrogen in 10% dimethyl sulfoxide, 90% FCS. CLL patients were consented on the institutional review board (IRB) approved at the National Heart, Lung, and Blood Institute (NHLBI, Office of Clinical Affairs, Bldg 10, CRC. Room 6-5140, Bethesda, Maryland 20892-1608) with protocol 04-H-0012 and samples from normal donors were collected by the Department of Transfusion Medicine, National Institutes of Health (NIH). This study was approved by the IRB mentioned above. Fresh cells were temporally placed on ice and plated for screening within 3 hrs of apheresis. Frozen cells were thawed the night before the assay and incubated in T175 flask in AIM V medium to recover overnight. Analysis of IGHV gene status was performed as described. CLL samples were cultured in AIM V serum free medium (Gibco-Invitrogen, Long Island, NY).
# (§2) Compound formatting and qHTS were performed as described previously. The final concentration of the NPC compounds in the 4 µL assay volume ranged from 57 µM to 0.7 nM in 1:5 dilution steps. The positive control plate format was as follows: columns 1 and 3, DMSO only; column 2, doxorubicin, a known cytotoxic chemotherapy agent in a 1:2 dilution series from 10 µM to 5 nM in DMSO; and column 4, doxorubicin at 10 µM in DMSO.
# To determine compound activity in the qHTS assay, the concentration-response data for each sample was plotted and modeled by a four parameter logistic fit yielding IC50 and efficacy (maximal response) values as previously described. […] Briefly, raw plate reads for each titration point were first normalized relative to the positive control compound (100%) and DMSO-only wells (basal, 0%), and then corrected by applying a pattern correction algorithm using compound-free control plates (i.e., DMSO-only plates) at the beginning and end of the NPC compound plate stack. […]
# [5] = system: lymphocytes from normal donors; conditions: for potency shift between CLL and normal donor samples: fresh cells, normal IC50 vs CLL IC50; for difference in efficacy between CLL and unaffected donor samples: at 19 µM and 57 µM, the two highest testing concentrations
# Method: (§5) Cell viability was measured using a luciferase-based ATP quantitation assay (CellTiter-Glo^TM, Promega). The intracellular ATP content indicates the number of viable (i.e. metabolically competent) cells after compound treatment. Four µL of CLL cells resuspended in AIM medium at 1,330,000 cells/ml, were dispensed into each well of white, solid bottom, 1536-well tissue culture–treated plates using a Multidrop-Combi dispenser and incubated overnight. After that, a total of 23 nL of compounds at 8 selected concentrations from the NPC library or positive control (10 mM stock of doxorubicin hydrochloride) in DMSO was transferred to each well of the assay plate using a pintool (Kalypsys, San Diego, CA), and the plates were further incubated at 37 °C with 5% CO2 for 24 hours to allow the reaction. Then 4µL of CellTilter-Glo luminescent substrate mix was added to each well. The plate was incubated at room temperature for 15 minutes. The plates were measured on a ViewLux plate reader (PerkinElmer) with clear filter.
# (§6) These compounds were then re-tested in the cell viability assay using 12 point titrations with concentration ranging from 57 µM to 0.3 nM with 1:3 dilution.
# as §4
# caspase-3/7 = assay: Caspase-Glo 3/7 activation assay in CLL samples; format: cell-based, human; conditions: read-out: EC50 caspase-3/7 activity
# Method: The effect of selected compounds on caspase activity was measured using a homogeneous luminescent method (Caspase-Glo® 3/7, 8 and 9 kits, Promega, Madison, WI). Briefly in this assay, caspase induced by cells cleaves a pro-luciferin substrate where a tetrapeptide caspase substrate - DEVD (asp-glu-val-asp) is cleaved to free aminoluciferin, which can be used as a substrate by luciferase yielding a bioluminescent signal. The luminescent signal is proportional to the amount of caspase activity present in the cells. Cells were dispensed in culture medium at 5,000/cells/5uL/well in 1536-well white/solid-bottom assay plates. The cells were incubated for overnight at 37°C. The compounds (23nL/well) were added via the pin tool. The treated cells were further incubated for 24 h at 37°C, followed by the addition of the Caspase-Glo 3/7, 8 or 9 reagents at 5uL/well. After a 30 min incubation at room temperature, the luminescence intensity of the assay plates was measured using a ViewLux Plate Reader. The caspase activity was normalized to DMSO control.
# [6] = system: lymphocytes from normal donors; assay: cells; conditions: Homo sapiens, Lymphocyte, read-out: IC50 normal
# Method: as §5, §6, §4
# [7] = system: fresh CLL patient lymphocytes; assay: cells; conditions: Homo sapiens, Lymphocyte
# Method: as §3, §4
# CLL = system: CLL; set-up: method as in PMID 20603650; conditions: oral, single-agent, treated CLL patients; cited from earlier work
# primary CLL cells = assay: qHTS luminescent ATP cell viability assay (CellTiter-Glo), primary screen, frozen CLL patient cells; format: cell-based, human; conditions: CLL cells, 24 h, Figure 1
# From the text: as §1, §2
# To determine compound activity in the qHTS assay, the concentration-response data for each sample was plotted and modeled by a four parameter logistic fit yielding IC50 and efficacy (maximal response) values as previously described. Data normalization and curve fitting were performed using in-house informatics tools. Briefly, raw plate reads for each titration point were first normalized relative to the positive control compound (100%) and DMSO-only wells (basal, 0%), and then corrected by applying a pattern correction algorithm using compound-free control plates (i.e., DMSO-only plates) at the beginning and end of the NPC compound plate stack. […] In brief, Class 1.1 and 1.2 were the highest-confidence complete CRCs containing upper and lower asymptotes with efficacies ≥ 80% and < 80%, respectively. Class 2.1 and 2.2 were incomplete CRCs having only one asymptote with efficacy ≥ 80% and < 80%, respectively.
# Compounds from the primary qHTS screen were further classified into three categories according to the quality of curve fit and efficacy.
# [8] = system: ME-180 human cervical carcinoma cell line; assay: Cell viability assay, ME-180 cells (NPC library profiling)
# From the text: Based on the definition of actives, inactives and inconclusive mentioned above, compounds were further clustered hierarchically using Spotfire DecisionSite 8.2 (Spotfire Inc., Cambridge, MA) based on their activity outcomes from the primary screen across a wide variety of cell viability assays against different cell lines or primary patient cells. Each compound was converted into an integer which represents its activity outcome in each cell viability assay. […] Integer 2 represents compounds in “inconclusive” category which is corresponding to light red in the heat map. […] Compounds not tested in the assay were labeled as 4 and shown as grey in the heat map.
# [9] = system: normal and solid tumor cell lines
# [10] = Homo sapiens, CLL samples, 24 hours
compound,measurement,setting,value
CC(=O)OC[C@H]1O[C@@H]([S-])[C@H](OC(C)=O)[C@@H](OC(C)=O)[C@@H]1OC(C)=O.CCP(CC)CC.[Au+] [auranofin],inhibition of human thioredoxin reductase,[1],strongly inhibit
same,life span of mice inoculated with lymphocytic leukemia P388,[2],effective in increasing the life span
same,IC50,[3],< 1000 nM
same,IC50,[3]; listed as Auranofin,70 nM
same,differential cytotoxicity between CLL cells and lymphocytes from normal donors,[4],differential cytotoxicity
same,potency shift between CLL and normal donor samples,[5],30 fold
same,potency shift between CLL and normal donor samples,[5]; listed as Auranofin,greater than 30 fold
same,IC50,"[5]; read-out: IC50 normal, average of 2 normal donors, fresh, Figure 5",2050 nM
same,EC50,"caspase-3/7; CLL samples, 24 hours",< 100 nM
OC[C@H]1O[C@H]([S-])[C@H](O)[C@@H](O)[C@@H]1O.[Au+] [aurothioglucose],inhibition of human thioredoxin reductase,[1],strongly inhibit
Nc1ncn([C@@H]2O[C@H](CO)[C@@H](O)[C@H]2O)c(=O)n1 [azacitidine],IC50,[6],15900 nM
same,IC50,"[7]; read-out: IC50 CLL, average of cells from 7 CLL patients, fresh, Figure 5",8100 nM
same,differential cytotoxicity between CLL cells and lymphocytes from normal donors,[4],differential cytotoxicity
same,difference in efficacy between CLL and unaffected donor samples,[5],over 40%
same,potency shift between CLL and normal donor samples,[5],about 3 fold
same,decreased efficacy to normal B cells,[5]; versus CLL cells,over 40%
same,EC50,caspase-3/7; [10],5100 nM
O=C(O)CCCc1ccc(N(CCCl)CCCl)cc1 [chlorambucil],frequency of complete responses,CLL,less than 5%
same,IC50,[7]; 24 h,12000 to 30000 nM
same,concentration-response curve class,primary CLL cells,3
OCC(S)CS (centres unmarked) [dimercaprol],IC50,[6],19400 nM
same,IC50,[3],< 1000 nM
same,IC50,[3]; listed as Dimercaprol,380 nM
same,differential cytotoxicity between CLL cells and lymphocytes from normal donors,[4],differential cytotoxicity
same,potency shift between CLL and normal donor samples,[5],50 fold
same,EC50,caspase-3/7; [10],< 100 nM
COc1cc([C@@H]2c3cc4c(cc3[C@H](O)[C@H]3COC(=O)[C@H]23)OCO4)cc(OC)c1OC [podofilox],IC50,[6],150 nM
same,efficacy (cytotoxicity),[3]; human,> 60%
same,IC50,[3],< 1000 nM
same,IC50,[3]; listed as Podofilox,60 nM
same,cytotoxicity on lymphocytes derived from unaffected donors,[5],almost no cytotoxicity
same,difference in efficacy between CLL and unaffected donor samples,[5],over 40%
same,decreased efficacy against B-cells from normal donors,[5]; at the testing concentration of 1.7 µM,approximately 40%
same,potency shift between CLL and normal donor samples,[5],about 3 fold
same,EC50,"caspase-3/7; Homo sapiens, 24 h",< 100 nM
tyrothricin,cytotoxicity in ME-180 cells,[8],prominent cytotoxicity
same,activity in cytotoxicity profiling assays,[9],pan-active
same,potency variation across cytotoxicity profiling assays,[9],< 5 fold
